Values quoted from earlier work in patent US9134323B2, “Antibody that specifically binds to an epitope in the tureet region of a human Kir channel” (priority 2009, dated 2015).
Where no end group is shown, it is not given here.

Experiments:
[1] = biological target: T1, Kir2.1 wild-type channels (Homo sapiens, UniProt P63252); conditions: applied to the outside of cells expressing the wild-type channels; 10 mM
T1 sequence (P63252 1-427): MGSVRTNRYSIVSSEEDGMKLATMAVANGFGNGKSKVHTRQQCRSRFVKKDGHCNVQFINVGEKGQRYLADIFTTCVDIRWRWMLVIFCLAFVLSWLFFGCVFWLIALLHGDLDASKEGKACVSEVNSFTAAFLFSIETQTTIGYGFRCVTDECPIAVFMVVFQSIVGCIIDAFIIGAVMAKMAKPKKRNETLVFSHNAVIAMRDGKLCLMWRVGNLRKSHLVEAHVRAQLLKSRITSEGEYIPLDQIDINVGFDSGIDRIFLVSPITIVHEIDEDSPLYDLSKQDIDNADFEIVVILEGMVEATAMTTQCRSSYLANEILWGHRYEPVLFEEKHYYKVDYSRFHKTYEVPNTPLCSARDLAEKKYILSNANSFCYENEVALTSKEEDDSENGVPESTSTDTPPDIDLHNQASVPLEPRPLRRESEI

[2] = biological target: T2, Kir1.1 channels (Homo sapiens, UniProt P48048)
T2 sequence (P48048 1-391): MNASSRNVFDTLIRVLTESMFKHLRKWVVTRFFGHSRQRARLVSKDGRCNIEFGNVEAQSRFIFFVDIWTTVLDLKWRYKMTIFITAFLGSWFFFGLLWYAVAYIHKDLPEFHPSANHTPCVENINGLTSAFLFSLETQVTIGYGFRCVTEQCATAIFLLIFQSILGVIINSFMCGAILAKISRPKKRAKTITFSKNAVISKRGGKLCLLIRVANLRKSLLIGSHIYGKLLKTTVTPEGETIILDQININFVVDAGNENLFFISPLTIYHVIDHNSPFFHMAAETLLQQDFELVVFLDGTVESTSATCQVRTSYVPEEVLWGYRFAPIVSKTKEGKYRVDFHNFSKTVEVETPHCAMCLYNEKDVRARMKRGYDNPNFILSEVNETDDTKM

[3] = biological target: T3, Kir3.4 channels (Homo sapiens, UniProt P48544+P48549)
T3 sequence (P48544 1-419): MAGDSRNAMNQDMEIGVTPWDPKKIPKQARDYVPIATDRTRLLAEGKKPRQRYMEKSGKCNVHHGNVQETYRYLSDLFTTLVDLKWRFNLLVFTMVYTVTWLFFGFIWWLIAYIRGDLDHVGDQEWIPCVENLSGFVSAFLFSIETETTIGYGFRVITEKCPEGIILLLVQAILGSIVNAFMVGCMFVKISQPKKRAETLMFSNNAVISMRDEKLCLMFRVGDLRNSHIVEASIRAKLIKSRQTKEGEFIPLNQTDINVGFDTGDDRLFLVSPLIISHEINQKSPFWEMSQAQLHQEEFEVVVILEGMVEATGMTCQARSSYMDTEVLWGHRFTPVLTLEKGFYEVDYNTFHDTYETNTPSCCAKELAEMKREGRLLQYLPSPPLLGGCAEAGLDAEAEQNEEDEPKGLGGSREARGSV
T3 sequence (P48549 1-501): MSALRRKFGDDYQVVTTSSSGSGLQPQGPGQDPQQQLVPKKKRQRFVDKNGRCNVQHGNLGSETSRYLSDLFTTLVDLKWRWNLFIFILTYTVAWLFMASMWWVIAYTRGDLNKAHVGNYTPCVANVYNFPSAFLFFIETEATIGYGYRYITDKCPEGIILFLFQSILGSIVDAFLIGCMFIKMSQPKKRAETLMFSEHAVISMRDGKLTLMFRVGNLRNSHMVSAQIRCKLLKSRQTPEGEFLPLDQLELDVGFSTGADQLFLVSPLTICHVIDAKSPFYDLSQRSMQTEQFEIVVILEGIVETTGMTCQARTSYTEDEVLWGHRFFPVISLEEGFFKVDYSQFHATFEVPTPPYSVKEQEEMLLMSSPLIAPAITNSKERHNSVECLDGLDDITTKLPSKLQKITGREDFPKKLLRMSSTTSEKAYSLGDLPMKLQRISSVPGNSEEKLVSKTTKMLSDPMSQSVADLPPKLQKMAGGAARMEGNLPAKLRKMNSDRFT

[4] = test system: Kir2.1 channel, variable sequence mutated to be Kir3.4-like; conditions: turret variable sequence mutated to be Kir3.4-like

Compound | effect on currents [1] | inhibition of Kir1.1 channels [2] | inhibition of Kir3.4 channels [3] | sensitivity of mutated Kir2.1 channel to the toxin [4] | single channel conductance in the blocked state ([2]; blocked state, reduced rather than inhibited all the way)
O[C@H](CS)[C@H](O)CS (racemic) [DTT, Dithiothreitol] | did not affect currents |  |  |  | 
N[C@@H](CCC(=O)N[C@@H](CS)C(=O)NCC(=O)O)C(=O)O [reduced glutathione] | did not affect currents |  |  |  | 
tertiapin (ALCNCNRIIIPHMCWKKCGKK; ends and bridges not checked; cysteine pairing not given here; UniProt P56587 1-21, looked up) |  | inhibits | inhibits | becomes sensitive | 
δ-dendrotoxin |  | inhibits |  |  | about 10%
